Measurements reported in paper PMC5309722, “A substrate-bound structure of cyanobacterial biliverdin reductase identifies stacked substrates as critical for activity” (Nature Communications, 2017).

Columns and labels:
human BVR = biological target: T1, human BVR (Homo sapiens, UniProt P53004); assay: optical titration, difference absorption; type: binding; conditions: 5 mM NADP+, 200 mM Tris-HCl pH 8.75, 28 °C; two biliverdins bound
T1 construct: gene BLVRA; C-terminal His tag (pET21a(+)), codon-optimized synthetic gene, E. coli BL21(DE3)
T1 sequence (P53004 1-296 limits assumed): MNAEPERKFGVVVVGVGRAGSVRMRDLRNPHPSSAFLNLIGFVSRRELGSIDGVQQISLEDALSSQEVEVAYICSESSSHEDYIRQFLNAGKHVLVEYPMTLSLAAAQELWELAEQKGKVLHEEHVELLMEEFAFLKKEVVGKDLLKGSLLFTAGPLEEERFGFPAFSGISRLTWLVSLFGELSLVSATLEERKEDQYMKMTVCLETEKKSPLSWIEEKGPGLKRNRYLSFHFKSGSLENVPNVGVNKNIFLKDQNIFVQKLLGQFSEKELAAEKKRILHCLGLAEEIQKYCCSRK

rat BVR = biological target: T2, rat BVR (Rattus norvegicus, UniProt P46844); assay: optical titration, difference absorption; type: binding; conditions: 5 mM NADP+, 200 mM Tris-HCl pH 8.75, 28 °C; two biliverdins bound
T2 construct: gene Blvra; C-terminal His tag (pET21a-rat bvr), E. coli BL21(DE3)
T2 sequence (P46844 1-295 limits assumed): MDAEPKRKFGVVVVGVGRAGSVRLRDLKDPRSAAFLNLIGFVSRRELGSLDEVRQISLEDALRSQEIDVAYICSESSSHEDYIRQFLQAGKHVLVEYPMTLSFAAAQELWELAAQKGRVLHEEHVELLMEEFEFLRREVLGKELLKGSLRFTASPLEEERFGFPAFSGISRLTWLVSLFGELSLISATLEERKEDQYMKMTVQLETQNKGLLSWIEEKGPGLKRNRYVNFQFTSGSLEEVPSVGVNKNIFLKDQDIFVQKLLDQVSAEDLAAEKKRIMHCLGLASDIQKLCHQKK

Syn BVR [1] = biological target: T3, Syn BVR (Synechocystis sp. PCC 6803, UniProt P72782); assay: X-ray crystal structure, co-crystal, […] Å; also optical titration; type: binding; conditions: ternary complex with NADP+; two stacked biliverdins (proximal and distal) in active site
T3 construct: gene bvdR; full length, 328 residues; N-terminal His6 tag (pET15b), E. coli C41(DE3); tag cut with thrombin for crystals
T3 sequence (P72782 entry or part of it): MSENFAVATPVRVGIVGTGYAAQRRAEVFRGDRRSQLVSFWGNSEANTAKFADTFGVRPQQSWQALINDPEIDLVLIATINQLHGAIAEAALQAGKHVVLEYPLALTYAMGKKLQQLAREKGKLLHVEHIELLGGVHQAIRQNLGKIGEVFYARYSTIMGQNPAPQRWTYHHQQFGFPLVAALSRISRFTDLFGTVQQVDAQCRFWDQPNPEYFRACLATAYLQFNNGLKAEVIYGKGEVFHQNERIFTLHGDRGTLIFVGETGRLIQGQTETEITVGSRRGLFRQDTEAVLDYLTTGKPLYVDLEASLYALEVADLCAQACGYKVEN

Syn BVR [2] = biological target: T3, Syn BVR; assay: reduction of biliverdin in crystal and solution; type: biochemical; conditions: biliverdin as co-substrate; crystallization solution

Compound	optical titration, difference absorption (human BVR)	optical titration, difference absorption (rat BVR)	X-ray crystal structure, co-crystal, 2.6 Å; also optical titration (Syn BVR [1])	reduction of biliverdin in crystal and solution (Syn BVR [2])
C=CC1=C(C)/C(=C/c2[nH]c(/C=C3N=C(/C=C4\NC(=O)C(C)=C4C=C)C(C)=C\3CCC(=O)O)c(CCC(=O)O)c2C)NC1=O [biliverdin IXα]	two BV molecules bound in both human and rat BVRs	two BV molecules bound in both human and rat BVRs	two BV molecules are bound to the catalytic cleft between the two domains	
NC(=O)C1=CN([C@@H]2O[C@H](COP(=O)(O)OP(=O)(O)OC[C@H]3O[C@@H](n4cnc5c(N)ncnc54)[C@H](OP(=O)(O)O)[C@@H]3O)[C@@H](O)[C@H]2O)C=CC1 [NADPH]				BV could be rapidly (as in the mixing time) reduced to BR by addition of NADPH
